Experimental data taken from US20200079766A1, “MONOCYCLIC OGA INHIBITOR COMPOUNDS” (Janssen Pharmaceutica NV, priority 2016, published 2020).

Columns and labels:
[1] = tested on: OGA in HEK293 cells inducible for P301L mutant human Tau (isoform 2N4R); assay: OGA cellular assay: immunocytochemical detection of O-GlcNAcylated proteins (CTD110.6 antibody) after 6 h incubation; assay type: cell-based; details: Homo sapiens, HEK293, 6 h
How it was run: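 Low-glucose medium, 6 h compound exposure at 0.2% DMSO; cells PFA-fixed and O-GlcNAc ICC signal imaged at 488 nm (9 fields/well), Hoechst nuclei counted for toxicity. Thiamet G 200 uM on each plate as maximum; IC50 from non-linear regression.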

[2] = biological target: T1, recombinant human Meningioma Expressed Antigen 5 (MGEA5), also referred to as O-GlcNAcase (OGA) (Homo sapiens, UniProt O60502); assay: OGA biochemical assay: inhibition of FM-GlcNAc hydrolysis, fluorescence; protocol A (10 nM OGA, 1 h) or protocol B (2 nM OGA, 6 h); details: Enzymatic protocol B (2 nM OGA, 6 h)
T1 construct: Full length OGA enzyme was purchased at OriGene (cat # TP322411); purchased OriGene TP322411
T1 sequence (O60502 1-916): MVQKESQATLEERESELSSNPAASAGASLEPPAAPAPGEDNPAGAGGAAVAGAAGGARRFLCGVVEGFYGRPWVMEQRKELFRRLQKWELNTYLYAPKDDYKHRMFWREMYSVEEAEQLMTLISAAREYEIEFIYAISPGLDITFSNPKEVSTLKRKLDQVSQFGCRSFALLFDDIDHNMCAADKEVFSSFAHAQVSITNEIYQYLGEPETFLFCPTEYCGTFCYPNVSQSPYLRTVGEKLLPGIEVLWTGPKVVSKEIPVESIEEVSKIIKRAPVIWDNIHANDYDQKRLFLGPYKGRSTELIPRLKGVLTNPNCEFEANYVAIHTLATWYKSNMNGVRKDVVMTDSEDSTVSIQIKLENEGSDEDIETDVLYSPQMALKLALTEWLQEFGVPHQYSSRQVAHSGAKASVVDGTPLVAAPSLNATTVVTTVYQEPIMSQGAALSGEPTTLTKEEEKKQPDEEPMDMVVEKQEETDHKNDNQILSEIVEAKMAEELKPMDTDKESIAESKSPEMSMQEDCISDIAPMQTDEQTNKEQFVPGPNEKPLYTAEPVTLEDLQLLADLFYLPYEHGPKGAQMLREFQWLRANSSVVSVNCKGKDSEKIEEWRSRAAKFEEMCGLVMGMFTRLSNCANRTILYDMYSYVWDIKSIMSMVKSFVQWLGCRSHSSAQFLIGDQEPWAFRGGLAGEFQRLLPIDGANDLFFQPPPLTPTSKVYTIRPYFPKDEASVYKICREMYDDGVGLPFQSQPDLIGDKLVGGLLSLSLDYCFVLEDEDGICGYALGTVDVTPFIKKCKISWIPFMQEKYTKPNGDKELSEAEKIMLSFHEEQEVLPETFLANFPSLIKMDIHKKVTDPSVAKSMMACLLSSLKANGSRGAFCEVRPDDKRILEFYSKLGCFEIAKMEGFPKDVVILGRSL
How it was run: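 Full-length human OGA in 200 mM citrate/phosphate pH 7.2 with 0.005% Tween-20, compound pre-incubated 60 min at RT, then 100 uM FM-GlcNAc (final); 10 nM enzyme for 1 h or 2 nM for 6 h at RT. Stopped with pH 11.0 carbonate; fluorescein read at ex 485/em 538 nm. IC50 and Hill coefficient from curve fit.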

- Emax [2]: 102%
- IC50 ([2]; read-out: Enzymatic hOGA, pIC50 (converted)): 40.7 nM
- melting point: 173.68 °C
Structure (SMILES): CC(=O)Nc1ncc(CN2CCC(Cc3ccc(F)c(C)n3)C2)s1 (centres unmarked) [compound 107]
- Emax ([1]; maximum = Thiamet G 200 uM): 82%
- EC50 ([1]; read-out: Cellular hOGA, pEC50 (converted)): 138 nM
